Values after ≈ are worked out from the molar mass of the structure shown. Like-named read-outs stand apart in the source and are kept apart here.
Tests used:
Format in all cases: cell-based
C. albicans ATCC90028 = test: Antifungal activity test, MIC by broth microdilution (CLSI M27-A3); conditions: C. albicans ATCC90028, 35° C., 24-48 hours
Procedure: (§1) The Minimum Inhibitory Concentration (MIC) values of the present compound against yeast and filamentous fungi were determined by broth microdilution assay according to the Clinical Laboratory Standards Institute (CLSI) guidelines outlined in documents M27-A3 and M38-A2. The medium used in the assay consisted of RPMI1640 (with glutamine, without bicarbonate) with 2% glucose and 0.165 mol/L morpholinepropanesulfonic acid (MOPS) with pH adjusted to 7.0 using 1 mol/L sodium hydroxide. The present compound was dissolved in dimethyl sulfoxide (DMSO). A series of two-fold dilutions were prepared in DMSO, and then 2 μL of the diluted compound was added to each well in 96-well sterile plates. Each inoculum was prepared by diluting a suspension of Candida spp. or a conidia suspension of Aspergillus spp. suspended in sterile saline solution, and then 200 μL was added to each well to a predetermined concentration using RPMI/MOPS (final concentration for each solution: approximately 1×10^3 cells/mL and approximately 1×10^4 CFU/mL). Plates of Candida spp. and Aspergillus spp. were incubated at 35° C. for 24-48 hours. The MIC was defined as the lowest concentration giving 100% inhibition compared to the growth control.

A. flavus ATCC204304 = test: Antifungal activity test, MIC by broth microdilution (CLSI M38-A2); conditions: A. flavus ATCC204304, 35° C., 24-48 hours
Procedure: as §1

A. fumigatus ATCC204305 = test: as above; conditions: A. fumigatus ATCC204305, 35° C., 24-48 hours
Procedure: as §1

[1] = lowest concentration giving 100% inhibition
[2] = Candida albicans, broth microdilution, 100% inhibition, read-out: MIC
[3] = Aspergillus flavus, broth microdilution, 100% inhibition, read-out: MIC
[4] = Aspergillus fumigatus, broth microdilution, 100% inhibition, read-out: MIC
[5] = broth microdilution, 100% inhibition

Structure (SMILES) | MIC (C. albicans ATCC90028; [1]) [µg/mL] | MIC (A. flavus ATCC204304; [1]) [µg/mL] | MIC (A. fumigatus ATCC204305; [1]) [µg/mL] | MIC (C. albicans ATCC90028; [5]) [µg/mL] | MIC (A. flavus ATCC204304; [5]) [µg/mL] | MIC (A. fumigatus ATCC204305; [5]) [µg/mL] | further results
C[C@@H]1[C@H](O)[C@@H](C)/C=C/C=C/C=C/C=C/C=C/C=C/C=C/[C@H](O[C@@H]2O[C@H](C)[C@@H](O)[C@H](NC(=N)N)[C@@H]2O)C[C@@H]2O[C@](O)(C[C@@H](O)C[C@@H](O)[C@H](O)CC[C@@H](O)C[C@@H](O)CC(=O)O[C@H]1C)C[C@H](O)[C@H]2NC(=O)NCC(N)=O [I-346] | 0.5 (≈ 0.482 µM) | 0.5 (≈ 0.482 µM) | 1 (≈ 0.964 µM) |  |  |  | 
C[C@@H]1[C@H](O)[C@@H](C)/C=C/C=C/C=C/C=C/C=C/C=C/C=C/[C@H](O[C@@H]2O[C@H](C)[C@@H](O)[C@H](N)[C@@H]2O)C[C@@H]2O[C@](O)(C[C@@H](O)C[C@@H](O)[C@H](O)CC[C@@H](O)C[C@@H](O)CC(=O)O[C@H]1C)C[C@H](O)[C@H]2NC(=O)NOCC(=O)O [I-278] |  |  |  |  |  |  | MIC (C. albicans ATCC90028; [2]): 0.5 µg/mL (≈ 0.494 µM); MIC (A. flavus ATCC204304; [3]): 0.5 µg/mL (≈ 0.494 µM); MIC (A. fumigatus ATCC204305; [4]): 0.5 µg/mL (≈ 0.494 µM)
C[C@@H]1[C@H](O)[C@@H](C)/C=C/C=C/C=C/C=C/C=C/C=C/C=C/[C@H](O[C@@H]2O[C@H](C)[C@@H](O)[C@H](N)[C@@H]2O)C[C@@H]2O[C@](O)(C[C@@H](O)C[C@@H](O)[C@H](O)CC[C@@H](O)C[C@@H](O)CC(=O)O[C@H]1C)C[C@H](O)[C@H]2NC(=O)N1C[C@@](O)(C(=O)O)[C@@](O)(C(=O)O)C1 [I-298] |  |  |  |  |  |  | MIC (C. albicans ATCC90028; [2]): 0.5 µg/mL (≈ 0.45 µM); MIC (A. flavus ATCC204304; [3]): 1 µg/mL (≈ 0.899 µM); MIC (A. fumigatus ATCC204305; [4]): 0.5 µg/mL (≈ 0.45 µM)
C[C@@H]1[C@H](O)[C@@H](C)/C=C/C=C/C=C/C=C/C=C/C=C/C=C/[C@H](O[C@@H]2O[C@H](C)[C@@H](O)[C@H](N)[C@@H]2O)C[C@@H]2O[C@](O)(C[C@@H](O)C[C@@H](O)[C@H](O)CC[C@@H](O)C[C@@H](O)CC(=O)O[C@H]1C)C[C@H](O)[C@H]2NC(=O)N1CC(N(C)C)C1 [I-189] |  |  |  | 0.25 (≈ 0.245 µM) | 0.5 (≈ 0.49 µM) | 0.5 (≈ 0.49 µM) | 
C[C@@H]1[C@H](O)[C@@H](C)/C=C/C=C/C=C/C=C/C=C/C=C/C=C/[C@H](O[C@@H]2O[C@H](C)[C@@H](O)[C@H](N)[C@@H]2O)C[C@@H]2O[C@](O)(C[C@@H](O)C[C@@H](O)[C@H](O)CC[C@@H](O)C[C@@H](O)CC(=O)O[C@H]1C)C[C@H](O)[C@H]2NC(=O)NC(CN)CO (stereo partly drawn) [I-169] |  |  |  | 0.25 (≈ 0.247 µM) | 1 (≈ 0.989 µM) | 1 (≈ 0.989 µM) | 
C[C@@H]1[C@H](O)[C@@H](C)/C=C/C=C/C=C/C=C/C=C/C=C/C=C/[C@H](O[C@@H]2O[C@H](C)[C@@H](O)[C@H](N)[C@@H]2O)C[C@@H]2O[C@](O)(C[C@@H](O)C[C@@H](O)[C@H](O)CC[C@@H](O)C[C@@H](O)CC(=O)O[C@H]1C)C[C@H](O)[C@H]2NC(=O)N(O)C[C@H](O)CO [I-275] |  |  |  | 0.5 (≈ 0.486 µM) | 1 (≈ 0.973 µM) | 0.5 (≈ 0.486 µM) | 
C[C@@H]1[C@H](O)[C@@H](C)/C=C/C=C/C=C/C=C/C=C/C=C/C=C/[C@H](O[C@@H]2O[C@H](C)[C@@H](O)[C@H](NC(=O)CN(C)C)[C@@H]2O)C[C@@H]2O[C@](O)(C[C@@H](O)C[C@@H](O)[C@H](O)CC[C@@H](O)C[C@@H](O)CC(=O)O[C@H]1C)C[C@H](O)[C@H]2NC(N)=O [I-325] | 0.25 (≈ 0.244 µM) | 0.5 (≈ 0.489 µM) | 1 (≈ 0.977 µM) |  |  |  | 
C[C@@H]1[C@H](O)[C@@H](C)/C=C/C=C/C=C/C=C/C=C/C=C/C=C/[C@H](O[C@@H]2O[C@H](C)[C@@H](O)[C@H](N)[C@@H]2O)C[C@@H]2O[C@](O)(C[C@@H](O)C[C@@H](O)[C@H](O)CC[C@@H](O)C[C@@H](O)CC(=O)O[C@H]1C)C[C@H](O)[C@H]2NC(=O)NNC[C@H](O)CO [I-227] |  |  |  | 0.5 (≈ 0.487 µM) | 0.5 (≈ 0.487 µM) | 1 (≈ 0.974 µM) | 
C[C@@H]1[C@H](O)[C@@H](C)/C=C/C=C/C=C/C=C/C=C/C=C/C=C/[C@H](O[C@@H]2O[C@H](C)[C@@H](O)[C@H](N)[C@@H]2O)C[C@@H]2O[C@](O)(C[C@@H](O)C[C@@H](O)[C@H](O)CC[C@@H](O)C[C@@H](O)CC(=O)O[C@H]1C)C[C@H](O)[C@H]2NC(=O)NCC1CN(C)C1 [I-159] |  |  |  | 0.25 (≈ 0.245 µM) | 0.5 (≈ 0.49 µM) | 1 (≈ 0.979 µM) | 
C[C@@H]1[C@H](O)[C@@H](C)/C=C/C=C/C=C/C=C/C=C/C=C/C=C/[C@H](O[C@@H]2O[C@H](C)[C@@H](O)[C@H](NC(=O)CN(C)C)[C@@H]2O)C[C@@H]2O[C@](O)(C[C@@H](O)C[C@@H](O)[C@H](O)CC[C@@H](O)C[C@@H](O)CC(=O)O[C@H]1C)C[C@H](O)[C@H]2NC(=O)NCCC(N)=O [I-344] | 0.5 (≈ 0.457 µM) | 0.5 (≈ 0.457 µM) | 1 (≈ 0.914 µM) |  |  |  | 

— patent US10696707B2, “Polyene macrolide derivative” (Shionogi & Co., Ltd., priority 2014, dated 2020)
